Measurements as given in the NIST ThermoML archive (doi:10.1016/j.tca.2006.04.016).
Numbers after ± are expanded uncertainties.

Experiment: xn = mol fraction of the nth substance listed
Conditions: 101 kPa, Liquid, Vibrating tube method

CN(C)CCCN [N,N-dimethyl-1,3-propanediamine] + O
mass density [kg/m3]
Conditions	283.15 K	288.15 K	293.15 K	298.15 K	303.15 K	308.15 K	313.15 K	318.15 K
x2 = 0	825.96 ± 0.13	821.56 ± 0.14	817.14 ± 0.14	812.72 ± 0.14	808.28 ± 0.14	803.83 ± 0.15	799.38 ± 0.15	794.9 ± 0.15
x2 = 0.0403	829.01 ± 0.13	824.62 ± 0.14	820.21 ± 0.14	815.8 ± 0.14	811.37 ± 0.14	806.92 ± 0.14	802.47 ± 0.15	797.99 ± 0.15
x2 = 0.0811	832.1 ± 0.14	827.73 ± 0.14	823.33 ± 0.14	818.92 ± 0.14	814.5 ± 0.14	810.07 ± 0.15	805.61 ± 0.15	801.14 ± 0.15
x2 = 0.1198	835.2 ± 0.14	830.84 ± 0.14	826.46 ± 0.14	822.07 ± 0.15	817.65 ± 0.15	813.22 ± 0.15	808.78 ± 0.15	804.31 ± 0.15
x2 = 0.16	838.61 ± 0.15	834.27 ± 0.15	829.9 ± 0.15	825.51 ± 0.15	821.11 ± 0.15	816.69 ± 0.16	812.24 ± 0.16	807.78 ± 0.16
x2 = 0.1996	842.14 ± 0.15	837.81 ± 0.16	833.45 ± 0.16	829.08 ± 0.16	824.69 ± 0.16	820.27 ± 0.16	815.84 ± 0.16	811.38 ± 0.17
x2 = 0.2498	846.96 ± 0.17	842.65 ± 0.17	838.31 ± 0.17	833.95 ± 0.17	829.57 ± 0.17	825.17 ± 0.17	820.74 ± 0.17	816.29 ± 0.18
x2 = 0.2998	852.16 ± 0.18	847.87 ± 0.18	843.54 ± 0.18	839.2 ± 0.18	834.84 ± 0.19	830.45 ± 0.19	826.04 ± 0.19	821.59 ± 0.19
x2 = 0.3499	857.74 ± 0.2	853.47 ± 0.2	849.16 ± 0.2	844.84 ± 0.2	840.49 ± 0.2	836.11 ± 0.2	831.71 ± 0.2	827.27 ± 0.2
x2 = 0.3997	863.92 ± 0.22	859.67 ± 0.22	855.38 ± 0.22	851.07 ± 0.22	846.73 ± 0.22	842.37 ± 0.22	837.97 ± 0.22	833.54 ± 0.22
x2 = 0.4501	870.78 ± 0.24	866.55 ± 0.24	862.28 ± 0.24	857.98 ± 0.24	853.66 ± 0.24	849.3 ± 0.24	844.91 ± 0.24	840.49 ± 0.24
x2 = 0.4998	878.37 ± 0.26	874.15 ± 0.26	869.89 ± 0.26	865.61 ± 0.26	861.29 ± 0.26	856.94 ± 0.26	852.56 ± 0.26	848.14 ± 0.26
x2 = 0.5501	886.96 ± 0.28	882.76 ± 0.28	878.51 ± 0.28	874.24 ± 0.28	869.93 ± 0.28	865.59 ± 0.28	861.21 ± 0.28	856.79 ± 0.28
x2 = 0.5999	896.46 ± 0.3	892.27 ± 0.3	888.05 ± 0.3	883.78 ± 0.3	879.48 ± 0.3	875.14 ± 0.3	870.76 ± 0.3	–
x2 = 0.6498	907.17 ± 0.32	902.99 ± 0.32	898.77 ± 0.32	894.51 ± 0.32	890.21 ± 0.32	885.88 ± 0.32	881.5 ± 0.32	–
x2 = 0.7	919.35 ± 0.35	915.19 ± 0.35	910.98 ± 0.34	906.73 ± 0.34	902.43 ± 0.34	898.1 ± 0.34	893.72 ± 0.34	–
x2 = 0.7499	932.79 ± 0.37	928.64 ± 0.37	924.44 ± 0.37	920.2 ± 0.37	915.92 ± 0.37	911.6 ± 0.36	907.23 ± 0.36	–
x2 = 0.8	947.49 ± 0.4	943.36 ± 0.39	939.18 ± 0.39	934.96 ± 0.39	930.71 ± 0.39	926.42 ± 0.39	922.09 ± 0.39	–
x2 = 0.84	959.97 ± 0.42	955.86 ± 0.41	951.72 ± 0.41	947.55 ± 0.41	943.35 ± 0.41	939.13 ± 0.41	934.86 ± 0.41	–
x2 = 0.8799	972.18 ± 0.44	968.2 ± 0.44	964.2 ± 0.44	960.18 ± 0.43	956.14 ± 0.43	952.08 ± 0.43	947.99 ± 0.43	–
x2 = 0.9	977.57 ± 0.45	973.8 ± 0.45	970 ± 0.45	966.18 ± 0.45	962.33 ± 0.44	958.45 ± 0.44	954.54 ± 0.44	–
x2 = 0.92	981.9 ± 0.46	978.55 ± 0.46	975.13 ± 0.46	971.67 ± 0.46	968.16 ± 0.46	964.59 ± 0.45	960.96 ± 0.45	–
x2 = 0.94	984.99 ± 0.47	982.31 ± 0.47	979.51 ± 0.47	976.61 ± 0.47	973.6 ± 0.47	970.49 ± 0.47	967.29 ± 0.46	–
x2 = 0.9597	987.53 ± 0.48	985.64 ± 0.48	983.57 ± 0.48	981.34 ± 0.48	978.95 ± 0.48	976.4 ± 0.48	973.72 ± 0.48	–
x2 = 0.975	990.28 ± 0.49	988.99 ± 0.49	987.47 ± 0.49	985.74 ± 0.49	983.82 ± 0.49	981.71 ± 0.49	979.42 ± 0.49	–
x2 = 0.99	994.84 ± 0.5	994.04 ± 0.5	992.95 ± 0.5	991.63 ± 0.5	990.07 ± 0.5	988.31 ± 0.5	986.35 ± 0.5	–
